Experimental data: US8017767B2, “Sucralose composition” (Tate & Lyle Public Limited Company, priority 2000, dated 2011)

Assay: Accelerated stability test (50° C.) with pH stability test of sucralose sample solution
Format: physicochemical
Conditions: for Days to pH Failure / Ph Stability / Days to pH Failure (Final Product Moisture Content) / Days to pH Failure (Initial Moisture Content): 50° C.; for Days to pH Failure: WHIRLPAK polyethylene bags, failure = pH drop ≧1.0; for Initial pH: sample solution (5 g in 50 ml pH-adjusted water) at time zero; for Initial pH difference: sample solution vs pH-adjusted water at time zero; for Days to pH Failure (Final Product Moisture Content): final dried product; for Days to pH Failure (Final Product Moisture Content) / Days to pH Failure (Initial Moisture Content): Example 3; for Days to pH Failure (Initial Moisture Content): partially dried product at intermediate (initial) moisture content
Description: Label seven 6 oz. and seven 18 oz. WHIRLPAK® polyethylene bags with indelible marker for each batch being tested for stability. Accurately weigh 25 g±0.01 g of sucralose into each 6 oz. WHIRLPAK® polyethylene bag. Heat or impulse seal the 6 oz. bag to ensure air tightness. Cut off any excess polyethylene at the top of the bag above the seal. Place the 6 oz. sealed bag into the 18 oz. bag and heat or impulse seal the 18 oz. bag to ensure air tightness. Roll down the top of the 18 oz. bag above the seal and bend the metal ties to form hooks.
Place the prepared bags into an oven stabilized at 50° C.±0.5° C. by hanging them from racks by the bag hooks. The bags must be freely suspended and not touch anything. Record the time samples are placed into the oven.
The pH stability test is conducted on the sucralose at time zero (the day the samples are placed in the oven, before the sucralose is exposed to elevated temperature) and every 24 hours until the batch being tested fails the test.
Place approximately 100 ml of deionized water into a 150 ml beaker. Using 0.1 N hydrochloric acid and/or 0.1 N sodium hydroxide, adjust the pH of the water to be between 5.8 and 6.0. Record the pH reading.
Accurately weigh 5 g±0.001 g of the product to be tested and transfer it to a 50 ml volumetric flask. Dissolve and bring to the mark by adding pH-adjusted water. If the sample to be tested is one that has been exposed to heat, remove one bag of the batch being tested from the oven and allow it to cool to room temperature before opening and sampling.
Pour the solution into a 100 ml beaker containing a stir bar, and slowly stir the solution on a magnetic stirrer. Immerse the pH electrode in the sample, allow the pH reading to stabilize, and record the pH reading of the sample. If no pH drop is observed after all the bags have been tested, the experiment is void and the test must repeated with a larger number of bags.
Record (to one decimal place) the pH of both the pH-adjusted water used and the sample sucralose solution. Subtract the pH of the […]. Report the result as (−) for a pH drop and (+) for a pH gain, e.g.:
The sample fails the test if there is a pH drop of 1.0 pH unit or more. The pH stability of the batch is defined as the number of days until the pH drop between the sample solution and that of the pH adjusted water is ≧1.0.
Samples of sucralose were tested for stability using the above procedures, but using bags of different moisture permeability. All other experimental details were the same. The TYVEK®/polyethylene bags are permeable; the WHIRLPAK® bags are less permeable. The A8080 bag consists of aluminum foil laminated to low-density polyethylene, which makes it very impermeable to moisture.

[1] = Example 1, sodium acetate in mother liquor varied
[2] = (−) pH drop, (+) pH gain, Example 1
[3] = Example 2, pH at crystallizer varied

| SMILES | Days to pH Failure [1] | Initial pH [1] | Initial pH difference [2] | Ph Stability (package A8080 (aluminum foil laminated to low-density polyethylene), impermeable) | Ph Stability (package FF 91 TYVEK/Polyethylene, very permeable) | Days to pH Failure [3] | Days to pH Failure (Final Product Moisture Content) | Days to pH Failure (Initial Moisture Content) | Initial pH difference [3] |
| --- | --- | --- | --- | --- | --- | --- | --- | --- | --- |
| OC[C@H]1O[C@H](O[C@]2(CCl)O[C@H](CCl)[C@@H](O)[C@@H]2O)[C@H](O)[C@@H](O)[C@H]1Cl [Sample 23, 4,1′,6′-trichloro-4,1′,6′-trideoxy-galactosucrose] | 5 Days | 6.12 | +0.13 |  |  |  |  |  |  |
| OC[C@H]1O[C@H](O[C@]2(CCl)O[C@H](CCl)[C@@H](O)[C@@H]2O)[C@H](O)[C@@H](O)[C@H]1Cl [Sample 47, 4,1′,6′-trichloro-4,1′,6′-trideoxy-galactosucrose] |  |  |  | 33 days | 4 days |  |  |  |  |
| OC[C@H]1O[C@H](O[C@]2(CCl)O[C@H](CCl)[C@@H](O)[C@@H]2O)[C@H](O)[C@@H](O)[C@H]1Cl [Sample 39, 4,1′,6′-trichloro-4,1′,6′-trideoxy-galactosucrose] |  |  |  |  |  | 7 Days | 7 Days | 13 Days | −0.02 |
| OC[C@H]1O[C@H](O[C@]2(CCl)O[C@H](CCl)[C@@H](O)[C@@H]2O)[C@H](O)[C@@H](O)[C@H]1Cl [Sample 1, 4,1′,6′-trichloro-4,1′,6′-trideoxy-galactosucrose] | 6 Days | 5.72 | −0.20 |  |  |  |  |  |  |
| OC[C@H]1O[C@H](O[C@]2(CCl)O[C@H](CCl)[C@@H](O)[C@@H]2O)[C@H](O)[C@@H](O)[C@H]1Cl [Sample 25, 4,1′,6′-trichloro-4,1′,6′-trideoxy-galactosucrose] | 6 Days | 6.03 | +0.05 |  |  |  |  |  |  |
| OC[C@H]1O[C@H](O[C@]2(CCl)O[C@H](CCl)[C@@H](O)[C@@H]2O)[C@H](O)[C@@H](O)[C@H]1Cl [Sample 7, 4,1′,6′-trichloro-4,1′,6′-trideoxy-galactosucrose] | 5 Days | 5.70 | −0.22 |  |  |  |  |  |  |
| OC[C@H]1O[C@H](O[C@]2(CCl)O[C@H](CCl)[C@@H](O)[C@@H]2O)[C@H](O)[C@@H](O)[C@H]1Cl [Sample 42, 4,1′,6′-trichloro-4,1′,6′-trideoxy-galactosucrose] |  |  |  |  |  | 5 Days | 5 Days | 9 Days | +0.17 |
| OC[C@H]1O[C@H](O[C@]2(CCl)O[C@H](CCl)[C@@H](O)[C@@H]2O)[C@H](O)[C@@H](O)[C@H]1Cl [Sample 4, 4,1′,6′-trichloro-4,1′,6′-trideoxy-galactosucrose] | 6 Days | 5.64 | −0.28 |  |  |  |  |  |  |
| OC[C@H]1O[C@H](O[C@]2(CCl)O[C@H](CCl)[C@@H](O)[C@@H]2O)[C@H](O)[C@@H](O)[C@H]1Cl [Sample 31, 4,1′,6′-trichloro-4,1′,6′-trideoxy-galactosucrose] | 5 Days | 6.03 | +0.06 |  |  |  |  |  |  |
| OC[C@H]1O[C@H](O[C@]2(CCl)O[C@H](CCl)[C@@H](O)[C@@H]2O)[C@H](O)[C@@H](O)[C@H]1Cl [Sample 22, 4,1′,6′-trichloro-4,1′,6′-trideoxy-galactosucrose] | 6 Days | 6.08 | +0.09 |  |  |  |  |  |  |
| OC[C@H]1O[C@H](O[C@]2(CCl)O[C@H](CCl)[C@@H](O)[C@@H]2O)[C@H](O)[C@@H](O)[C@H]1Cl [Sample 17, 4,1′,6′-trichloro-4,1′,6′-trideoxy-galactosucrose] | 6 Days | 6.03 | +0.10 |  |  |  |  |  |  |
| OC[C@H]1O[C@H](O[C@]2(CCl)O[C@H](CCl)[C@@H](O)[C@@H]2O)[C@H](O)[C@@H](O)[C@H]1Cl [Sample 13, 4,1′,6′-trichloro-4,1′,6′-trideoxy-galactosucrose] | 5 Days | 5.85 | −0.10 |  |  |  |  |  |  |
| OC[C@H]1O[C@H](O[C@]2(CCl)O[C@H](CCl)[C@@H](O)[C@@H]2O)[C@H](O)[C@@H](O)[C@H]1Cl [Sample 9, 4,1′,6′-trichloro-4,1′,6′-trideoxy-galactosucrose] | 7 Days | 6.19 | +0.23 |  |  |  |  |  |  |
| OC[C@H]1O[C@H](O[C@]2(CCl)O[C@H](CCl)[C@@H](O)[C@@H]2O)[C@H](O)[C@@H](O)[C@H]1Cl [Sample 38, 4,1′,6′-trichloro-4,1′,6′-trideoxy-galactosucrose] |  |  |  |  |  | 6 Days | 6 Days | 23 Days | +0.17 |
| OC[C@H]1O[C@H](O[C@]2(CCl)O[C@H](CCl)[C@@H](O)[C@@H]2O)[C@H](O)[C@@H](O)[C@H]1Cl [Sample 11, 4,1′,6′-trichloro-4,1′,6′-trideoxy-galactosucrose] | 6 Days | 6.05 | +0.10 |  |  |  |  |  |  |
| OC[C@H]1O[C@H](O[C@]2(CCl)O[C@H](CCl)[C@@H](O)[C@@H]2O)[C@H](O)[C@@H](O)[C@H]1Cl [Sample 29, 4,1′,6′-trichloro-4,1′,6′-trideoxy-galactosucrose] | 6 Days | 6.09 | +0.12 |  |  |  |  |  |  |
| OC[C@H]1O[C@H](O[C@]2(CCl)O[C@H](CCl)[C@@H](O)[C@@H]2O)[C@H](O)[C@@H](O)[C@H]1Cl [Sample 41, 4,1′,6′-trichloro-4,1′,6′-trideoxy-galactosucrose] |  |  |  |  |  | 5 Days | 5 Days | 12 Days | +0.40 |
| OC[C@H]1O[C@H](O[C@]2(CCl)O[C@H](CCl)[C@@H](O)[C@@H]2O)[C@H](O)[C@@H](O)[C@H]1Cl [Sample 26, 4,1′,6′-trichloro-4,1′,6′-trideoxy-galactosucrose] | 6 Days | 6.06 | +0.10 |  |  |  |  |  |  |
| OC[C@H]1O[C@H](O[C@]2(CCl)O[C@H](CCl)[C@@H](O)[C@@H]2O)[C@H](O)[C@@H](O)[C@H]1Cl [Sample 37, 4,1′,6′-trichloro-4,1′,6′-trideoxy-galactosucrose] |  |  |  |  |  | 5 Days | 5 Days | 21 Days | −0.06 |
| OC[C@H]1O[C@H](O[C@]2(CCl)O[C@H](CCl)[C@@H](O)[C@@H]2O)[C@H](O)[C@@H](O)[C@H]1Cl [Sample 21, 4,1′,6′-trichloro-4,1′,6′-trideoxy-galactosucrose] | 6 Days | 6.05 | +0.10 |  |  |  |  |  |  |
| OC[C@H]1O[C@H](O[C@]2(CCl)O[C@H](CCl)[C@@H](O)[C@@H]2O)[C@H](O)[C@@H](O)[C@H]1Cl [Sample 5, 4,1′,6′-trichloro-4,1′,6′-trideoxy-galactosucrose] | 6 Days | 5.64 | −0.28 |  |  |  |  |  |  |
| OC[C@H]1O[C@H](O[C@]2(CCl)O[C@H](CCl)[C@@H](O)[C@@H]2O)[C@H](O)[C@@H](O)[C@H]1Cl [Sample 14, 4,1′,6′-trichloro-4,1′,6′-trideoxy-galactosucrose] | 6 Days | 5.95 | +0.02 |  |  |  |  |  |  |
| OC[C@H]1O[C@H](O[C@]2(CCl)O[C@H](CCl)[C@@H](O)[C@@H]2O)[C@H](O)[C@@H](O)[C@H]1Cl [Sample 43, 4,1′,6′-trichloro-4,1′,6′-trideoxy-galactosucrose] |  |  |  |  |  | 5 Days | 5 Days | 8 Days | +0.29 |
| OC[C@H]1O[C@H](O[C@]2(CCl)O[C@H](CCl)[C@@H](O)[C@@H]2O)[C@H](O)[C@@H](O)[C@H]1Cl [Sample 44, 4,1′,6′-trichloro-4,1′,6′-trideoxy-galactosucrose] |  |  |  |  |  | 6 Days |  |  | −0.18 |
